According to US20050186568A1, “Kinases and phosphatases” (priority 2001, published 2005):

Assays:
SEQ ID NO:67 = test: Microarray analysis of SEQ ID NO:67 expression in steroid-treated C3A cells; type: cell-based, human; conditions: early confluent C3A cells treated for 1, 3, or 6 hours
Description: (§1) Total RNA is isolated from tissue samples using the guanidinium thiocyanate method and poly(A)^+ RNA is purified using the oligo-(dT) cellulose method. Each poly(A)^+ RNA sample is reverse transcribed using MMLV reverse-transcriptase, 0.05 pg/μl oligo-(dT) primer (21 mer), 1× first strand buffer, 0.03 units/μl RNase inhibitor, 500 μM dATP, 500 μM dGTP, 500 μM dTTP, 40 μM dCTWP, 40 μM dCTP-Cy3 (BDS) or dCTP-Cy5 (Amersham Biosciences). The reverse transcription reaction is performed in a […] containing 200 ng poly(A)^+ RNA with GEMBRIGHT kits (Incyte Genomics). Specific control poly(A)^+ RNAs are synthesized by in vitro transcription from non-coding yeast genomic DNA. After incubation at 37° C. for 2 hr, each reaction sample (one with Cy3 and another with Cy5 labeling) is treated with […] of 0.5M sodium hydroxide and incubated for 20 minutes at 85° C. to the stop the reaction and degrade the RNA. Samples are purified using two successive CHROMA SPIN 30 gel filtration spin columns (Clontech, Palo Alto Calif.) and after combining, both reaction samples are ethanol precipitated using […] of 100% ethanol. The sample is then dried to completion using a SpeedVAC (Savant Instruments Inc., Holbrook N.Y.) and resuspended in 14 μl 5×SSC/0.2% SDS.
Sequences of the present invention are used to generate array elements. Each array element is amplified from bacterial cells containing vectors with cloned cDNA inserts. PCR amplification uses primers complementary to the vector sequences flanking the cDNA insert. Array elements are amplified in thirty cycles of PCR from an initial quantity of 1-2 ng to a final quantity greater than 5 μg. Amplified array elements are then purified using SEPHACRYL-400 (Amersham Biosciences).
Purified array elements are immobilized on polymer-coated glass slides. Glass microscope slides (Corning) are cleaned by ultrasound in 0.1% SDS and acetone, with extensive distilled water washes between and after treatments. Glass slides are etched in 4% hydrofluoric acid (VWR Scientific Products Corporation (VWR), West Chester Pa.), washed extensively in distilled water, and coated with 0.05% aminopropyl silane (Sigma) in 95% ethanol. Coated slides are cured in a 110° C. oven.
Array elements are applied to the coated glass substrate using a procedure described in U.S. Pat. No. 5,807,522, incorporated herein by reference. 1 μl of the array element DNA, at an average concentration of 100 ng/μl, is loaded into the open capillary printing element by a high-speed robotic apparatus. The apparatus then deposits about 5 nl of array element sample per slide.
Microarrays are UV-crosslinked using a STRATALINKER UV-crosslinker (Stratagene). […]

SEQ ID NO:57 = test: Microarray analysis of SEQ ID NO:57 expression in steroid-treated C3A cells; type: cell-based, human; conditions: early confluent C3A cells, 1, 3 and 6 hours (all time points), compared to untreated C3A cells
Description: as §1, with “The sample is then dried to completion using a SpeedVAC (Savant Instruments Inc., Holbrook N.Y.) and resuspended in 14 μl 5×SSC/0.2% SDS.” left out
Sequences of the present invention are used to generate array elements. […] Array elements are amplified in thirty cycles of PCR from an initial quantity of 1-2 ng to a final quantity greater than 5 μg. […]

CKI-epsilon = CKI-epsilon (Homo sapiens, UniProt P49674); conditions: recombinant expression; cited from earlier work
Sequence of CKI-epsilon (P49674 whole entry): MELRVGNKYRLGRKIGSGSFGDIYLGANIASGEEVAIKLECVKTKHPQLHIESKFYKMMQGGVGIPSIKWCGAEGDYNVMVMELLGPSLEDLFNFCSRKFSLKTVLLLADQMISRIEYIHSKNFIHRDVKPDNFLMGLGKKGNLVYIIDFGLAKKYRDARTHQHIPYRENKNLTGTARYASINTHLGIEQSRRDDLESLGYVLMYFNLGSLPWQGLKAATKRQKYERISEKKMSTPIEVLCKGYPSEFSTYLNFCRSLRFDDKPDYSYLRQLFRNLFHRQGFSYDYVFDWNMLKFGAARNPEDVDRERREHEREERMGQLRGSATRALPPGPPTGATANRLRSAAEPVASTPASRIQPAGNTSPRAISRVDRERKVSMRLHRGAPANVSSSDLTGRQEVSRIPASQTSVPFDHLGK

[1] = relative to progesterone; cited from earlier work

Row | Compound | expression of SEQ ID NO:67 (SEQ ID NO:67) | other results
1 | C[C@H]1C[C@H]2[C@@H]3CCC4=CC(=O)C=C[C@]4(C)[C@@]3(Cl)[C@@H](O)C[C@]2(C)[C@@]1(O)C(=O)CO [beclomethasone] | at least a two-fold decrease | expression of SEQ ID NO:57 (SEQ ID NO:57; beclamethasone at 10 μM): increased by at least two-fold
2 | NCCNS(=O)(=O)c1ccc(Cl)c2ccncc12 [CKI-7] |  | inhibition of CKI-epsilon (CKI-epsilon): inhibited
3 | C[C@]12C=CC(=O)C=C1CC[C@@H]1[C@@H]2C(=O)C[C@@]2(C)[C@H]1CC[C@]2(O)C(=O)CO [prednisone] | at least a two-fold decrease | 
4 | 6α-methyl-17-hydroxyprogesterone [medroxyprogesterone] | at least a two-fold decrease | pharmacological activity greater than progesterone [1]: about 15 times
5 | CC(=O)[C@H]1CC[C@H]2[C@@H]3CCC4=CC(=O)CC[C@]4(C)[C@H]3CC[C@]12C [progesterone] | at least a two-fold decrease | expression of SEQ ID NO:57 (SEQ ID NO:57; progesterone at 100 μM): increased by at least two-fold
